Among the data in ChEMBL document CHEMBL3774317, “Design and synthesis of novel tamoxifen analogues that avoid CYP2D6 metabolism” (Eur J Med Chem, 2016) are growth values, retold here.

Holding throughout (assay type): functional
Assay [1] in a line: Cytotoxicity against human UACC257 cells assessed as cell growth at 10^-7 M after 48 hrs by SRB assay. The settings on record: UACC-257, 48 h, read-out: Activity.
Assay [2] is described as follows: Cytotoxicity against human Caki1 cells assessed as cell growth at 10^-7 M after 48 hrs by SRB assay. The settings on record: CAKI-1, 48 h, read-out: Activity.
The nature of assay [3]: Cytotoxicity against human DU145 cells assessed as cell growth at 10^-7 M after 48 hrs by SRB assay. As to conditions: DU-145, 48 h, read-out: Activity.
Assay [4] can be described thus: Cytotoxicity against human Hs 578T cells assessed as cell growth at 10^-7 M after 48 hrs by SRB assay. As to conditions: read-out: Activity.
In assay [5] the test system is T47D. Put plainly: Cytotoxicity against human T47D cells assessed as cell growth at 10^-7 M after 48 hrs by SRB assay. The settings on record: read-out: Activity.
The test system of the next assay is K562. Put plainly: Cytotoxicity against human K562 cells assessed as cell growth at 10^-6 M after 48 hrs by SRB assay. The settings on record: K562, 48 h, read-out: Activity.
A short description of assay [6]: Cytotoxicity against human HOP62 cells assessed as cell growth at 10^-6 M after 48 hrs by SRB assay. The settings on record: HOP-62, 48 h, read-out: Activity.
For assay [7], the system named is 786-0. Put plainly: Cytotoxicity against human 786-0 cells assessed as cell growth at 10^-4 M after 48 hrs by SRB assay. As to conditions: 786-0, 48 h, read-out: Activity.
The subject of assay [8] is MDA-MB-435. Put plainly: Cytotoxicity against human MDA-MB-435 cells assessed as cell growth at 10^-6 M after 48 hrs by SRB assay. As to conditions: MDA-MB-435, 48 h, read-out: Activity.
Assay [9] can be described thus: Cytotoxicity against human UACC257 cells assessed as cell growth at 10^-6 M after 48 hrs by SRB assay. As to conditions: UACC-257, 48 h, read-out: Activity.
The subject of the next assay is A498. Put plainly: Cytotoxicity against human A498 cells assessed as cell growth at 10^-6 M after 48 hrs by SRB assay. The settings on record: A498, 48 h, read-out: Activity.
Assay [10] in a line: Cytotoxicity against human UO31 cells assessed as cell growth at 10^-6 M after 48 hrs by SRB assay. As to conditions: UO-31, 48 h, read-out: Activity.
The next assay concerns MDA-MB-468. Put plainly: Cytotoxicity against human MDA-MB-468 cells assessed as cell growth at 10^-6 M after 48 hrs by SRB assay. The settings on record: MDA-MB-468, 48 h, read-out: Activity.
Assay [11] in a line: Cytotoxicity against human HCC2998 cells assessed as cell growth at 10^-8 M after 48 hrs by SRB assay. As to conditions: HCC 2998, 48 h, read-out: Activity.
Assay [12] is described as follows: Cytotoxicity against human SW620 cells assessed as cell growth at 10^-8 M after 48 hrs by SRB assay. As to conditions: SW-620, 48 h, read-out: Activity.
Assay [13] in a line: Cytotoxicity against human SNB19 cells assessed as cell growth at 10^-8 M after 48 hrs by SRB assay. The settings on record: SNB-19, 48 h, read-out: Activity.
The next assay has as its system Malme-3M. Put plainly: Cytotoxicity against human MALME-3M cells assessed as cell growth at 10^-8 M after 48 hrs by SRB assay. The settings on record: read-out: Activity.
The subject of assay [14] is 786-0. Put plainly: Cytotoxicity against human 786-0 cells assessed as cell growth at 10^-8 M after 48 hrs by SRB assay. As to conditions: 786-0, 48 h, read-out: Activity.
A short description of assay [15]: Cytotoxicity against human RXF393 cells assessed as cell growth at 10^-8 M after 48 hrs by SRB assay. The settings on record: RXF 393, 48 h, read-out: Activity.
The next assay relates to CCRF-CEM. Put plainly: Cytotoxicity against human CCRF-CEM cells assessed as cell growth at 10^-7 M after 48 hrs by SRB assay. As to conditions: read-out: Activity.
The nature of assay [16]: Cytotoxicity against human MOLT4 cells assessed as cell growth at 10^-7 M after 48 hrs by SRB assay. The settings on record: MOLT-4, 48 h, read-out: Activity.
For a further assay, the system named is NCI-H522. Put plainly: Cytotoxicity against human NCI-H522 cells assessed as cell growth at 10^-7 M after 48 hrs by SRB assay. The settings on record: NCI-H522, 48 h, read-out: Activity.
A short description of assay [17]: Cytotoxicity against human OVCAR8 cells assessed as cell growth at 10^-5 M after 48 hrs by SRB assay. The settings on record: OVCAR-8, 48 h, read-out: Activity.
A short description of assay [18]: Cytotoxicity against human OVCAR5 cells assessed as cell growth at 10^-4 M after 48 hrs by SRB assay. As to conditions: OVCAR-5, 48 h, read-out: Activity.
The next assay relates to MDA-MB-231. Put plainly: Cytotoxicity against human MDA-MB-231 cells assessed as cell growth at 50 nM after 48 hrs by SRB assay. As to conditions: MDA-MB-231, 48 h, read-out: Activity.
Assay [19] in a line: Cytotoxicity against human BT549 cells assessed as cell growth at 50 nM after 48 hrs by SRB assay. As to conditions: BT-549, 48 h, read-out: Activity.
A short description of assay [20]: Cytotoxicity against human OVCAR4 cells assessed as cell growth at 50 uM after 48 hrs by SRB assay. The settings on record: OVCAR-4, 48 h, read-out: Activity.
The subject of another assay is ACHN. Put plainly: Cytotoxicity against human ACHN cells assessed as cell growth at 50 uM after 48 hrs by SRB assay. The settings on record: read-out: Activity.
Assay [21] is described as follows: Cytotoxicity against human Hs 578T cells assessed as cell growth at 50 uM after 48 hrs by SRB assay. The settings on record: read-out: Activity.
A short description of assay [22]: Cytotoxicity against human COLO205 cells assessed as cell growth at 0.5 uM after 48 hrs by SRB assay. The settings on record: COLO 205, 48 h, read-out: Activity.
Assay [23] is described as follows: Cytotoxicity against human HCT116 cells assessed as cell growth at 0.5 uM after 48 hrs by SRB assay. The settings on record: HCT-116, 48 h, read-out: Activity.
Assay [24] is described as follows: Cytotoxicity against human SNB19 cells assessed as cell growth at 0.5 uM after 48 hrs by SRB assay. As to conditions: SNB-19, 48 h, read-out: Activity.
Assay [25] has as its system MDA-MB-435. Put plainly: Cytotoxicity against human MDA-MB-435 cells assessed as cell growth at 0.5 uM after 48 hrs by SRB assay. As to conditions: MDA-MB-435, 48 h, read-out: Activity.
Assay [26] is described as follows: Cytotoxicity against human Caki1 cells assessed as cell growth at 0.5 uM after 48 hrs by SRB assay. The settings on record: CAKI-1, 48 h, read-out: Activity.
The test system of another assay is EKVX. Put plainly: Cytotoxicity against human EKVX cells assessed as cell growth at 5 uM after 48 hrs by SRB assay. As to conditions: read-out: Activity.
A further assay relates to M14. Put plainly: Cytotoxicity against human M14 cells assessed as cell growth at 5 nM after 48 hrs by SRB assay. The settings on record: M14, 48 h, read-out: Activity.
Assay [27] can be described thus: Cytotoxicity against human OVCAR4 cells assessed as cell growth at 5 nM after 48 hrs by SRB assay. As to conditions: OVCAR-4, 48 h, read-out: Activity.
Assay [28] can be described thus: Cytotoxicity against human OVCAR8 cells assessed as cell growth at 5 nM after 48 hrs by SRB assay. The settings on record: OVCAR-8, 48 h, read-out: Activity.
A further assay concerns SN12C. Put plainly: Cytotoxicity against human SN12C cells assessed as cell growth at 5 nM after 48 hrs by SRB assay. The settings on record: read-out: Activity.
A short description of assay [29]: Cytotoxicity against human Caki1 cells assessed as cell growth at 5 uM after 48 hrs by SRB assay. As to conditions: CAKI-1, 48 h, read-out: Activity.
Assay [30] has as its system T47D. Put plainly: Cytotoxicity against human T47D cells assessed as cell growth at 5 uM after 48 hrs by SRB assay. The settings on record: read-out: Activity.
Another assay has as its system HT-29. Put plainly: Cytotoxicity against human HT-29 cells assessed as cell growth at 50 uM after 48 hrs by SRB assay. As to conditions: HT-29, 48 h, read-out: Activity.

`C/C(=C(/c1ccc(O)cc1)c1ccc(OCCN2CCCC2)cc1)c1ccccc1`: the growth at 0.1 µM in [1] was 102%; in assay [2], 88%; in [3], 96%; in [4], 101%; in the assay with T47D [5] it was 63%; in the assay with CCRF-CEM it was 113%. In addition, the growth at 0.1 µM in assay [16] was found to be 101%; in the assay on NCI-H522, 94%. Moreover, the growth at 1 µM turned out to be 81% in the assay with K562; 98% in assay [6]; 87% in the assay on MDA-MB-435 [8]; 104% in [9]; 66% with A498; 78% in [10]. The growth at 1 µM in the assay on MDA-MB-468 is 84%. Further, the growth at 100 µM (in the assay with 786-0 [7]; in [18]) was -85% in each case. Moreover, the growth at 0.01 µM in assay [11] turned out to be 100%; in assay [12] it was 102%; in assay [13], 104%; with Malme-3M, 99%; in the assay with 786-0 [14], 97%; in assay [15], 96%. In addition, the growth at 10 µM in assay [17] stood at 35%.

As for `CCCCCCCCCC(=O)Oc1ccc(/C(=C(/C)c2ccccc2)c2ccc(OCCN3CCCC3)cc2)cc1`, the growth at 0.05 µM amounted to 105% in the assay on MDA-MB-231 and 92% in [19]. In addition, the growth at 50 µM was -87% in assay [20], -92% with ACHN, -18% in assay [21] and -89% in the assay with HT-29. The growth at 0.5 µM in [22] came out at 44%; in assay [23], 71%; in assay [24], 87%; in the assay with MDA-MB-435 [25], 67%; in assay [26] it was 75%. Also, the results for the growth at 5 µM (with EKVX; in assay [29]; with T47D [30]) were 74%, 71% and 52%, respectively. Also, the growth at 0.005 µM in the assay on M14 was determined as 98%; in assay [27], 100%; in [28] it was 102%; in the assay with SN12C it was 102%.
